ChEMBL document CHEMBL1201862, “PubChem BioAssay data set” (2004)
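Each compound was tested at five concentrations against cells in 96-well plates for 48 hours. At the GI50, growth is halved.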 Calls of active or inactive are those of the source. No stated cut-off is given here; in the data, active = GI50 up to about 1.1 µM and inactive = higher.

Key:
Assay in all cases: NCI-60 cell line screen, 48 h
[1] = test system: M14
[2] = test system: SF-268
[3] = test system: K562
[4] = test system: RXF 393
[5] = test system: SNB-19
[6] = test system: SK-MEL-2
[7] = test system: NCI-H23
[8] = test system: OVCAR-8
[9] = test system: OVCAR-3
[10] = test system: A498
[11] = test system: ACHN
[12] = test system: Malme-3M
[13] = test system: Hs-578T
[14] = test system: KM12
[15] = test system: EKVX
[16] = test system: OVCAR-4
[17] = test system: SN12C
[18] = test system: MCF7
[19] = test system: SW-620
[20] = test system: HL-60

Measured: GI50

CC1=C(Nc2c(C)cc(O)cc2O)C(=O)C=c2oc3c(c21)C(C)=C(Nc1c(C)cc(O)cc1O)C(=O)C=3
inactive: [1] 28.8 µM | [2] 45.5 µM | [3] 34 µM | [4] > 100 µM | [5] 35.8 µM | [6] 34.1 µM | [7] 20.3 µM | [8] 38 µM | [9] 15.6 µM | [10] > 100 µM | [11] > 100 µM | [12] 21.9 µM | [13] 32 µM | [14] 28.9 µM | [15] 47.5 µM | [16] 57.4 µM | [17] 30.4 µM | [18] 26.5 µM | [19] 35.5 µM

Brc1cccc(C2ON=C(c3ccccc3)N2C23CC4CC(CC(C4)C2)C3)c1 (centres undefined)
inactive: [1] > 10 µM | [2] > 10 µM | [3] > 10 µM | [4] > 10 µM | [5] > 10 µM | [6] > 10 µM | [7] > 10 µM | [8] > 10 µM | [9] > 10 µM | [10] > 10 µM | [11] > 10 µM | [12] > 10 µM | [13] > 10 µM | [14] > 10 µM | [15] > 10 µM | [16] > 10 µM | [17] > 10 µM | [18] > 10 µM | [19] > 10 µM

O=C(Nc1ccc(Cl)cc1)c1cc2c(cc1Cl)Sc1nccn1S2(=O)=O
inactive: [1] > 100 µM | [2] 27.5 µM | [3] 14.1 µM | [4] 27.5 µM | [5] 44.4 µM | [6] > 100 µM | [8] 51.3 µM | [9] 46.5 µM | [10] 29.6 µM | [11] 75.5 µM | [12] 77.8 µM | [13] 33.8 µM | [14] > 100 µM | [15] 69 µM | [16] 37.3 µM | [17] 49.7 µM | [18] 69.3 µM | [19] 27.5 µM

COCC1OC([P+](c2ccccc2)(c2ccccc2)c2ccccc2)CC(OC)C1OC (centres undefined)
inactive: [1] 40.8 µM | [3] 34.2 µM | [4] 27.2 µM | [5] 34.7 µM | [6] 24.1 µM | [7] 48.6 µM | [8] 28.8 µM | [9] 22.7 µM | [10] 37.2 µM | [11] 74.6 µM | [12] 33.9 µM | [13] 28.2 µM | [14] 34.5 µM | [15] 42.6 µM | [16] 44.1 µM | [17] 29.1 µM | [18] 38 µM | [19] 35.5 µM

CC(=O)Oc1ccc(/C=C/C(=O)O[C@H]2CCCC[C@@H]2OC(=O)/C=C/c2ccc(OC(C)=O)c(OC(C)=O)c2)cc1OC(C)=O
inactive: [1] 7.14 µM | [2] 8.17 µM | [3] 5.75 µM | [4] 11.1 µM | [5] 4.71 µM | [6] 15.3 µM | [7] 8.75 µM | [8] 8.61 µM | [9] 4.74 µM | [10] 18.5 µM | [11] 5.83 µM | [12] 15.6 µM | [13] 6.21 µM | [14] 8.75 µM | [15] 17.1 µM | [16] 7.08 µM | [17] 9.23 µM | [18] 13.8 µM | [19] 2.24 µM

CC1N(O)C(c2ccccc2)C(c2ccccc2)=[N+]1[O-] (centres undefined)
inactive: [1] > 100 µM | [3] > 100 µM | [4] > 100 µM | [5] > 100 µM | [6] > 100 µM | [7] > 100 µM | [8] > 100 µM | [9] > 100 µM | [10] > 100 µM | [20] > 100 µM | [11] > 100 µM | [12] > 100 µM | [13] > 100 µM | [14] > 100 µM | [15] > 100 µM | [16] > 100 µM | [17] > 100 µM | [18] > 100 µM | [19] > 100 µM

CCOC(=O)c1c(N2CCOCC2)[nH]c(=O)c(C(c2cccs2)c2c(O)c(C(=O)OCC)c(N3CCOCC3)[nH]c2=O)c1O
inactive: [1] > 100 µM | [2] > 100 µM | [3] > 100 µM | [4] > 100 µM | [5] > 100 µM | [6] > 100 µM | [7] > 100 µM | [8] > 100 µM | [9] > 100 µM | [10] > 100 µM | [11] > 100 µM | [12] > 100 µM | [13] > 100 µM | [14] > 100 µM | [15] > 100 µM | [16] > 100 µM | [17] > 100 µM | [18] > 100 µM | [19] > 100 µM

CCc1n[nH]c(=O)n1N1C(=O)CCC1=O
inactive: [1] > 100 µM | [2] > 100 µM | [3] > 100 µM | [4] > 100 µM | [5] > 100 µM | [6] > 100 µM | [8] > 100 µM | [9] > 100 µM | [10] > 100 µM | [11] > 100 µM | [12] > 100 µM | [13] > 100 µM | [14] > 100 µM | [15] > 100 µM | [16] > 100 µM | [17] > 100 µM | [18] > 100 µM | [19] > 100 µM
